Assay results taken from US20250179059A1 (The Regents of the University of California, priority 2021, published 2025).

What was measured:
[1] = target: T1, human BRD4 bromodomain II (Homo sapiens, UniProt O60885); test: Bromodomain binding assay (AlphaScreen), BRD4 BDII; conditions: BRD4 BDII AlphaScreen assay; read-out: BRD4 BD2 IC50
T1 construct: human BRD4 bromodomain II [based on Genbank NM_058243, residues 349-460]; host or cells: E. coli
Outline: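 Read-out is AlphaScreen signal (ex 680 nm, em 520-620 nm) from streptavidin donor beads on a biotinylated acetylated histone H4 (aa 1-21) peptide and nickel acceptor beads on the His6-tagged bromodomain. IC50 values come from curve fits of percentage peptide binding against compound concentration.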

[2] = system: human SKM-1 acute myeloid leukemia cells; test: SKM-1 antiproliferation cell-based assay (ATPlite); conditions: Homo sapiens, SKM-1, SKM-1 antiproliferation assay
Outline: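 Log-phase cells in RPMI 1640/15% FBS were seeded at 34722 cells/mL and exposed for 4 days to nine-concentration DMSO serial dilutions in triplicate. Viability was read as ATP luminescence (ATPlite 1step), and IC50 values came from variable-slope non-linear regression.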

SMILES	IC50 [1] [nM]	GI50 [2] [nM]
Cn1ccn(-c2c(O)cc(-c3cc(F)cc(-c4cccc(N5CCN(C(C)(C)C)CC5)c4)c3O)cc2Cl)c1=O [Example 952, 1-(3″-(4-(tert-butyl)piperazin-1-yl)-3-chloro-5′-fluoro-2′,5-dihydroxy-[1,1′:3′,1″-terphenyl]-4-yl)-3-methyl-1H-imidazol-2(3H)-one]	> 100	300 to 3000
Cc1ncc(-c2cc(F)cc(-c3ccc(-n4ccn(C)c4=O)c(Cl)c3)c2O)cc1N1CC[C@]2(CCCN2C(C)C)C1 [Example 956, (R)-1-(3-chloro-5′-fluoro-2′-hydroxy-3′-(5-(1-isopropyl-1,7-diazaspiro[4.4]nonan-7-yl)-6-methylpyridin-3-yl)-[1,1′-biphenyl]-4-yl)-3-methyl-1,3-dihydro-2H-imidazol-2-one]	1 to 10	0.3 to 30
COc1ncc(-c2cc(F)cc(-c3ccc(-n4ccn(C)c4=O)c(Cl)c3)c2O)cc1N1CC[C@@]2(CCCN2C(C)C)C1 [Example 957, (S)-1-(3-chloro-5′-fluoro-2′-hydroxy-3′-(5-(1-isopropyl-1,7-diazaspiro[4.4]nonan-7-yl)-6-methoxypyridin-3-yl)-[1,1′-biphenyl]-4-yl)-3-methyl-1,3-dihydro-2H-imidazol-2-one]	0.01 to 1	0.3 to 30
COc1ncc(-c2cc(F)cc(-c3ccc(-n4ccn(C)c4=O)c(Cl)c3)c2O)cc1N1CC[C@]2(CCCN2C(C)C)C1 [Example 958, (R)-1-(3-chloro-5′-fluoro-2′-hydroxy-3′-(5-(1-isopropyl-1,7-diazaspiro[4.4]nonan-7-yl)-6-methoxypyridin-3-yl)-[1,1′-biphenyl]-4-yl)-3-methyl-1,3-dihydro-2H-imidazol-2-one]	0.01 to 1	0.3 to 30
COc1ncc(-c2nc(C)cc(-c3ccc(-n4ccn(C)c4=O)c(Cl)c3)c2O)cc1N1CCN(C(C)(C)C)CC1 [Example 959, 1-(4-(5′-(4-(tert-butyl)piperazin-1-yl)-3-hydroxy-6′-methoxy-6-methyl-[2,3′-bipyridin]-4-yl)-2-chlorophenyl)-3-methyl-1,3-dihydro-2H-imidazol-2-one]	1 to 10	0.3 to 30
Cc1cc(-c2ccc(-n3ccn(C)c3=O)c(Cl)c2)c(O)c(-c2cnc(C)c(N3CCN(C(C)(C)C)CC3)c2)n1 [Example 961, 1-(4-(5′-(4-(tert-butyl)piperazin-1-yl)-3-hydroxy-6,6′-dimethyl-[2,3′-bipyridin]-4-yl)-2-chlorophenyl)-3-methyl-1H-imidazol-2(3H)-one]	1 to 10	0.3 to 30
Cc1cc(-c2ccc(-n3ccn(C)c3=O)c(Cl)c2)c(O)c(-c2cnc(N)c(N3CCN(C(C)(C)C)CC3)c2)n1 [Example 962, 1-(4-(6′-amino-5′-(4-(tert-butyl)piperazin-1-yl)-3-hydroxy-6-methyl-[2,3′-bipyridin]-4-yl)-2-chlorophenyl)-3-methyl-1H-imidazol-2(3H)-one]	1 to 10	0.3 to 30
CC(C)N1CCC[C@@]12CCN(c1cccc(-c3cc(F)cc(-c4ccc(-n5ccn(C)c5=O)c(Cl)c4)c3O)c1)C2 [Example 966, (S)-1-(3-chloro-5′-fluoro-2′-hydroxy-3″-(1-isopropyl-1,7-diazaspiro[4.4]nonan-7-yl)-[1,1′:3′,1″-terphenyl]-4-yl)-3-methyl-1,3-dihydro-2H-imidazol-2-one]	1 to 10	30 to 300
CC(C)N1CCCC12CCN(c1cc(-c3cc(F)cc(-c4ccc(-n5ccn(C)c5=O)c(Cl)c4)c3O)cnc1N(C)C)C2 (stereo not shown) [Example 969, 1-(3-chloro-3′-(6-(dimethylamino)-5-(1-isopropyl-1,7-diazaspiro[4.4]nonan-7-yl)pyridin-3-yl)-5′-fluoro-2′-hydroxy-[1,1′-biphenyl]-4-yl)-3-methyl-1H-imidazol-2(3H)-one]	1 to 10	30 to 300
CNc1ncc(-c2cc(F)cc(-c3ccc(-n4ccn(C)c4=O)c(Cl)c3)c2O)cc1N1CCC2(CCCN2C(C)C)C1 (stereo not shown) [Example 970, 1-(3-chloro-5′-fluoro-2′-hydroxy-3′-(5-(1-isopropyl-1,7-diazaspiro[4.4]nonan-7-yl)-6-(methylamino)pyridin-3-yl)-[1,1′-biphenyl]-4-yl)-3-methyl-1H-imidazol-2(3H)-one]	1 to 10	0.3 to 30
Cc1cc(-c2ccc(-n3ccn(C)c3=O)c(Cl)c2)c(O)c(-c2cc(N3CCN(C(C)(C)C)CC3)c3nccn3c2)n1 [Example 971, 1-(4-(2-(8-(4-(tert-butyl)piperazin-1-yl)imidazo[1,2-a]pyridin-6-yl)-3-hydroxy-6-methylpyridin-4-yl)-2-chlorophenyl)-3-methyl-1H-imidazol-2(3H)-one]	0.01 to 1	0.3 to 30
COc1ncc(-c2nc(C)cc(-c3ccc(-n4ccn(C)c4=O)c(Cl)c3)c2O)cc1N1CCC2(CCCN2C(C)C)C1 (stereo not shown) [Example 972, 1-(2-chloro-4-(3-hydroxy-5′-(1-isopropyl-1,7-diazaspiro[4.4]nonan-7-yl)-6′-methoxy-6-methyl-[2,3′-bipyridin]-4-yl)phenyl)-3-methyl-1H-imidazol-2(3H)-one]	0.01 to 1	0.3 to 30
Cc1cc(-c2ccc(-n3ccn(C)c3=O)c(Cl)c2)c(O)c(-c2cnc(C)c(N3CCC4(CCCN4C(C)C)C3)c2)n1 (stereo not shown) [Example 973, 1-(2-chloro-4-(3-hydroxy-5′-(1-isopropyl-1,7-diazaspiro[4.4]nonan-7-yl)-6,6′-dimethyl-[2,3′-bipyridin]-4-yl)phenyl)-3-methyl-1H-imidazol-2(3H)-one]	0.01 to 1	0.3 to 30

Further lines, results first:

IC50 [1] [nM]	GI50 [2] [nM]	SMILES
> 100	300 to 3000	Cn1ccn(-c2ccc(-c3cc(F)cc(-c4cc(N5CCN(C(C)(C)C)CC5)ccn4)c3O)cc2Cl)c1=O [Example 953, 1-(3′-(4-(4-(tert-butyl)piperazin-1-yl)pyridin-2-yl)-3-chloro-5′-fluoro-2′-hydroxy-[1,1′-biphenyl]-4-yl)-3-methyl-1H-imidazol-2(3H)-one]
1 to 10	0.3 to 30	CC(C)N1CCC12CCN(c1cc(-c3cc(F)cc(-c4ccc(-n5ccn(C)c5=O)c(Cl)c4)c3O)cnc1N)C2 (stereo not shown) [Example 954, 1-(3′-(6-amino-5-(1-isopropyl-1,6-diazaspiro[3.4]octan-6-yl)pyridin-3-yl)-3-chloro-5′-fluoro-2′-hydroxy-[1,1′-biphenyl]-4-yl)-3-methyl-1H-imidazol-2(3H)-one]
1 to 10	0.3 to 30	Cc1ncc(-c2cc(F)cc(-c3ccc(-n4ccn(C)c4=O)c(Cl)c3)c2O)cc1N1CC[C@@]2(CCCN2C(C)C)C1 [Example 955, (S)-1-(3-chloro-5′-fluoro-2′-hydroxy-3′-(5-(1-isopropyl-1,7-diazaspiro[4.4]nonan-7-yl)-6-methylpyridin-3-yl)-[1,1′-biphenyl]-4-yl)-3-methyl-1,3-dihydro-2H-imidazol-2-one]
1 to 10	0.3 to 30	COc1ncc(-c2cc(F)cc(-c3ccc(-n4ccn(C)c4=O)c(Cl)c3)c2O)cc1N1CCN(C(C)(C)CO)CC1 [Example 960, 1-(3-chloro-5′-fluoro-2′-hydroxy-3′-(5-(4-(1-hydroxy-2-methylpropan-2-yl)piperazin-1-yl)-6-methoxypyridin-3-yl)-[1,1′-biphenyl]-4-yl)-3-methyl-1H-imidazol-2(3H)-one]
1 to 10	0.3 to 30	CNc1ncc(-c2nc(C)cc(-c3ccc(-n4ccn(C)c4=O)c(Cl)c3)c2O)cc1N1CCN(C(C)(C)C)CC1 [Example 963, 1-(4-(5′-(4-(tert-butyl)piperazin-1-yl)-3-hydroxy-6-methyl-6′-(methylamino)-[2,3′-bipyridin]-4-yl)-2-chlorophenyl)-3-methyl-1H-imidazol-2(3H)-one]
0.01 to 1	0.3 to 30	Cc1cc(-c2ccc(-n3ccn(C)c3=O)c(Cl)c2)c(O)c(-c2cnc(N(C)C)c(N3CCN(C(C)(C)C)CC3)c2)n1 [Example 964, 1-(4-(5′-(4-(tert-butyl)piperazin-1-yl)-6′-(dimethylamino)-3-hydroxy-6-methyl-[2,3′-bipyridin]-4-yl)-2-chlorophenyl)-3-methyl-1H-imidazol-2(3H)-one]
1 to 10	0.3 to 30	CNc1ncc(-c2cc(F)cc(-c3ccc(-n4ccn(C)c4=O)c(Cl)c3)c2O)cc1N1CCC2(CCN2C(C)C)C1 (stereo not shown) [Example 965, 1-{3-Chloro-5′-fluoro-2′-hydroxy-3′-[5-(1-isopropyl-1,6-diaza-spiro[3.4]oct-6-yl)-6-methylamino-pyridin-3-yl]-biphenyl-4-yl}-3-methyl-1,3-dihydro-imidazol-2-one]
1 to 10	30 to 300	CC(C)N1CCC[C@]12CCN(c1cccc(-c3cc(F)cc(-c4ccc(-n5ccn(C)c5=O)c(Cl)c4)c3O)c1)C2 [Example 967, (R)-1-(3-chloro-5′-fluoro-2′-hydroxy-3″-(1-isopropyl-1,7-diazaspiro[4.4]nonan-7-yl)-[1,1′:3′,1″-terphenyl]-4-yl)-3-methyl-1,3-dihydro-2H-imidazol-2-one]
1 to 10	0.3 to 30	CC(C)N1CCCC12CCN(c1cc(-c3cc(F)cc(-c4ccc(-n5ccn(C)c5=O)c(Cl)c4)c3O)cnc1N)C2 (stereo not shown) [Example 968, 1-(3′-(6-amino-5-(1-isopropyl-1,7-diazaspiro[4.4]nonan-7-yl)pyridin-3-yl)-3-chloro-5′-fluoro-2′-hydroxy-[1,1′biphenyl]-4-yl)-3-methyl-1H-imidazol-2(3H)-one]
0.01 to 1	0.3 to 30	Cc1cc(-c2ccc(-n3ccn(C)c3=O)c(Cl)c2)c(O)c(-c2cnc(C)c(N3CCC4(CCN4C(C)C)C3)c2)n1 (stereo not shown) [Example 974, 1-(2-chloro-4-(3-hydroxy-5′-(1-isopropyl-1,6-diazaspiro[3.4]octan-6-yl)-6,6′-dimethyl-[2,3′-bipyridin]-4-yl)phenyl)-3-methyl-1H-imidazol-2(3H)-one]
